Like-named read-outs stand apart in the source and are kept apart here.
Key:
[1] = tested on: phospho-MEK and phospho-ERK in A375 cells; assay: Immunoblotting (Western Blot) analysis of phospho-MEK and phospho-ERK; format: cell-based, human
Procedure: (§1) Testing is carried out at doses of 0, and 11 serial dilutions ranging from 0.17 to 10000 nM. Protein lysates are generated by treatment of the cells with RIPA lysis buffer from Millipore. Western blotting analysis is performed substantially as described in Yadav et al, Molecular Carcinogenesis, 2011, 50: 346-52. Briefly, SDS-PAGE is performed on cell lysates containing 20 ug of total protein using 4-20% Novex® tri-glycine gradient gels (Invitrogen). Protein is transferred onto […] nitrocellulose membranes using NuPAGE® Transfer Buffer (Invitrogen) and 10% methanol at 100 V, 4° C. for 1 hr. Generally, the primary antibody is used at 1:1000 dilution, and secondary antibody at 1:20000 dilution. Proteins are detected using the Odyssey Infrared Imaging System (Li-COR Biosciences). Antibodies against ERK1/2, phospho-ERK1/2, phospho-MEK1/2, and actin are obtained from Cell Signaling Technology.
Phospho-ERK activity was substantially eliminated at 41 nM.

[2] = tested on: phospho-MEK and phospho-ERK in A375 xenograft; assay: A375 xenograft single dose pharmacodynamic study; format: in vivo, rat; conditions: two hours post dose, Western Blot
Procedure: Briefly, 10×10^6 cells (A375) or 5×10^6 cells (HCT-116) in a 1:1 medium and matrigel mix (0.2 mL total volume) are implanted by subcutaneous injection in the hind leg of nude female rats (NIH model No. NIHRNU-M from Taconic). A total of 8 rats in each group are used for the efficacy study, and a total of 3-4 rats in each group are used for a pharmacodynamic study. The Eli Lilly and Company Animal Care and Use Committee approved all the experimental protocols. […] Tumor growth and body weight are monitored over time to evaluate activity and signs of toxicity. Bidimensional measurements of tumors are performed twice a week and tumor volumes are calculated based on mid-axis length and mid-axis width. Tumor volume data are transformed to a log scale to equalize variance across time and treatment groups. The log volume data are analyzed with a two-way repeated measures analysis of variance by time and treatment using the MIXED® procedures in SAS® software (version 8.2). The correlation model for the repeated measures is spatial power. Treated groups are compared to the control group at each time point. The MIXED® procedure is also used separately for each treatment group to calculate adjusted means and standard errors at each time point. […]

[3] = tested on: A375; assay: CellTiter-Glo proliferation and viability assay; format: cell-based; conditions: Homo sapiens
[4] = tested on: A2780; assay: CellTiter-Glo proliferation and viability assay; format: cell-based; conditions: Homo sapiens
[5] = tested on: 786-0; assay: CellTiter-Glo proliferation and viability assay; format: cell-based; conditions: Homo sapiens
[6] = Solubility; format: physicochemical
[7] = tested on: P30-OHK; assay: CellTiter-Glo proliferation and viability assay; format: cell-based; conditions: Homo sapiens, read-out: Abs IC50
[8] = tested on: SK-Mel-28; assay: CellTiter-Glo proliferation and viability assay; format: cell-based; conditions: Homo sapiens
[9] = biological target: C-Raf (WT) (Homo sapiens, UniProt P04049); assay: biochemical
[10] = tested on: HCC70; assay: CellTiter-Glo proliferation and viability assay; format: cell-based; conditions: Homo sapiens
[11] = tested on: SW620; assay: CellTiter-Glo proliferation and viability assay; format: cell-based; conditions: Homo sapiens
[12] = tested on: COLO-829; assay: CellTiter-Glo proliferation and viability assay; format: cell-based; conditions: Homo sapiens
[13] = tested on: NCI-H2009; assay: CellTiter-Glo proliferation and viability assay; format: cell-based; conditions: Homo sapiens
[14] = tested on: NCI-H1573; assay: CellTiter-Glo proliferation and viability assay; format: cell-based; conditions: Homo sapiens
[15] = tested on: AGS; assay: CellTiter-Glo proliferation and viability assay; format: cell-based; conditions: Homo sapiens
[16] = tested on: Hep3B2.1-7; assay: CellTiter-Glo proliferation and viability assay; format: cell-based; conditions: Homo sapiens
[17] = tested on: phospho-MEK and phospho-ERK in HCT-116 cells harboring B-Raf wild type and K-Ras mutation; assay: Immunoblotting (Western Blot) analysis, paradoxical pathway activation; format: cell-based, human
Procedure: as §1
Testing is carried out at doses of 0, and 11 serial dilutions ranging from 0.17 to 10000 nM. The phospho-MEK and phospho-ERK activities were evaluated by Immunoblotting (Western Blot) analysis.

C-Raf (WT), sequence (P04049 whole entry): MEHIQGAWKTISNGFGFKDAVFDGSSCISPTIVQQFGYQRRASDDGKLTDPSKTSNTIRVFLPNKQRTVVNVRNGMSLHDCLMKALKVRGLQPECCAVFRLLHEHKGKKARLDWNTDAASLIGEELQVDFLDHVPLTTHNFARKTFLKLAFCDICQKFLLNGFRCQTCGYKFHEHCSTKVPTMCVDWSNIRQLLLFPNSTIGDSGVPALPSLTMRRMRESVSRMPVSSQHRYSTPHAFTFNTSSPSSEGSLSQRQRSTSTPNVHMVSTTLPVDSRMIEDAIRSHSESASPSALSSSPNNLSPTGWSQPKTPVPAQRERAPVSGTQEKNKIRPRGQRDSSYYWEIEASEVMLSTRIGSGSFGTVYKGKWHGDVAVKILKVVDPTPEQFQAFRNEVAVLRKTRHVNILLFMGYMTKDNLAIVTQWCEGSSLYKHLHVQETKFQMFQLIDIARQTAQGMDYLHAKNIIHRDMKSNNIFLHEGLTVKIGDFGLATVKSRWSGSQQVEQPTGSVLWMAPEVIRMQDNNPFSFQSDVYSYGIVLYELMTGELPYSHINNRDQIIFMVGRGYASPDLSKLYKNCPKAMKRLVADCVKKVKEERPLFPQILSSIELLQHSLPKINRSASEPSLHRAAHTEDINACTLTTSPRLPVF

IC50 ([3]; A-375, A375, B-Raf V600E, melanoma): 9.2 nM
IC50 ([4]; read-out: Abs IC50): 0.81 nM
IC50 ([4]; read-out: Rel IC50): 0.2 nM
IC50 ([5]; read-out: Abs IC50): > 20 nM
IC50 ([5]; read-out: Rel IC50): 4.58 nM
solubility [6]: poor
IC50 ([8]; SK-MEL-28, read-out: Abs IC50): 0.04 nM
IC50 ([8]; SK-MEL-28, read-out: Rel IC50): 0.03 nM
IC50 ([8]; SK-Mel-28, B-Raf V600E, melanoma, CellTiter-Glo, read-out: IC50): 29 nM
inhibition at 0.001 µM [9]: -11%
inhibition at 0.01 µM [9]: 23.9%
inhibition at 0.1 µM [9]: 50.8%
inhibition at 1 µM [9]: 79.3%
IC50 ([11]; SW-620, read-out: Abs IC50): 2.86 nM
IC50 ([11]; SW-620, read-out: Rel IC50): 0.46 nM
IC50 ([12]; read-out: Abs IC50): 0.05 nM
IC50 ([12]; read-out: Rel IC50): 0.04 nM
IC50 ([13]; read-out: Abs IC50): 11.9 nM
IC50 ([13]; read-out: Rel IC50): 1.58 nM
IC50 ([14]; read-out: Abs IC50): > 20 nM
IC50 ([14]; read-out: Rel IC50): 0.99 nM
IC50 ([15]; read-out: Abs IC50): 1.14 nM
IC50 ([15]; read-out: Rel IC50): 0.34 nM
IC50 ([16]; read-out: Abs IC50): 0.8 nM
IC50 ([16]; read-out: Rel IC50): 0.36 nM
SMILES: CNc1ncc2cc(-c3cc(NC(=O)NCCC(C)(C)C)c(F)cc3C)c(C)nc2n1 [Example 1, 1-(3,3-Dimethylbutyl)-3-(2-fluoro-4-methyl-5-(7-methyl-2-(methylamino)pyrido[2,3-d]pyrimidin-6-yl)phenyl)urea]
concentration at which phospho-ERK activity was substantially eliminated [1]: 41 nM
phospho-MEK and phospho-ERK activities [1]: inhibited phospho-MEK and phospho-ERK activities
phospho-MEK and phospho-ERK activities, PD effect ([2]; single dose 25 mg/kg): almost completely eliminated
phospho-MEK and phospho-ERK, PD effect ([2]; single dose 3.125 to 50 mg/kg): inhibition was observed in all dose groups
IC50 ([3]; A-375, parental A375 B-Raf V600E cells, comparison with A375res): 11 nM
IC50 [7]: 1.43 nM
IC50 ([10]; read-out: Abs IC50): > 20 nM
IC50 ([10]; read-out: Rel IC50): > 20 nM
paradoxical pathway activation ([17]; HCT-116, B-Raf wild type and K-Ras mutation): minimal paradoxical pathway activation
doses that substantially eliminate phospho-ERK signal ([17]; HCT-116, Western Blot): above 41 nM
